pIC50: −log10 of the molar value.
Tests used:
[1] = test system: A687V EZH2 mutant SUP-B8 cell line; assay: 6-day cell proliferation assay (CellTiter-Glo), SUP-B8; assay type: cell-based, human
Description: (§1) FIG. 4. A687V EZH2 mutant ALL is highly dependent on EZH2 activity. A, Sensitivity of ALL cell lines to EZH2 inhibition with GSK126. Cells were treated with a 20-point 2-fold dilution series of GSK126 (range 36 μM-70 pM) for 6 days and cell growth was measured using Cell Titer-Glo (Promega). Data are represented as the concentration of GSK126 required to inhibit 50% of growth (growth IC50). B, Western blot analysis of H3K27me3, H3K27me2, H3K27me1, and total histone H3 following treatment of NALM-6 or SUP-B8 cell lines with varying concentrations of GSK126 for 72 hours.
(§2) FIG. 5. […] Temporal kinetics of GSK126-induced growth inhibition (A and C) and caspase 3/7 activation (B and D) in NALM-6 (A and B) and SUP-B8 (C and D) over a 6 day time course using Cell Titer-Glo or Caspase-Glo 3/7 (Promega), respectively.
The SUP-B8 acute lymphoblastic leukemia cell line which harbors a heterozygous A687V EZH2 mutation was kindly provided by Dr. Ronald Levy (Stanford University) and was maintained in RPMI-1640 media (MediaTech) supplemented with 10% fetal bovine serum (FBS) (Sigma-Aldrich). All other cell lines were obtained from either ATCC or DSMZ and maintained in the recommended cell culture media.
(§3) Cells were evaluated for sensitivity to GSK126 in a 6-day proliferation assay as described previously (McCabe et al., 2012b). Briefly, cells were seeded into 384 well plates at a density that permitted proliferation for 6 days. Cells were then treated in duplicate with a 20-point 2-fold dilution series of GSK126 or 0.147% DMSO. After incubation with compound for 6 days, cell proliferation was evaluated using CellTiter-Glo (Promega) according to the manufacturer's specifications. Data were fit with a 4-parameter equation to generate a concentration response curve and to determine the concentration of GSK126 required to inhibit 50% of growth (gIC50).

[2] = test system: NALM-6 cells; assay: Gene expression profiling (Affymetrix U133 Plus 2.0), NALM-6; assay type: cell-based, human; conditions: NALM-6, 500 nM GSK126, 72 hours
Description: (§4) FIG. 6. Activation of gene expression in A687V EZH2, but not WT EZH2, cells. A, Gene expression profiling of SUP-B8 and NALM-6 cells treated for 72 hours with 0.1% DMSO or 500 nM GSK126. […] Green, lower expression. Red, higher expression.
(§5) SUP-B8 and NALM-6 cells (2×10^5/well) were seeded into six-well tissue culture plates 24 hours before treatment with 0.1% DMSO or 500 nM GSK126 for 72 hours. Cells were collected into Trizol reagent (Invitrogen) and total RNA was isolated via phenol:chloroform extraction and the RNeasy kit (Qiagen) according to the manufacturer's instructions. Total RNA was labeled and hybridized to Affymetrix Human Genome U133 Plus 2.0 oligonucleotide microarrays arrays according to the manufacturer's instructions (Affymetrix, Santa Clara, Calif., USA). CEL files were processed and differentially expressed probe sets were determined as described previously (McCabe et al., 2012b). Briefly, significant probe sets were identified after filtering for detection, an average fold-change >2 or <-2, and p-values adjusted for multiple testing correction by FDR (Benjamini Hochberg)<0.1.

[3] = test system: Y641 and A677 EZH2 mutant DLBCL cell lines; conditions: many Y641 and A677 EZH2 mutant DLBCL cell lines; previously shown; cited from earlier work
[4] = test system: EZH2 WT cell lines (B cell ALL panel); assay: 6-day cell proliferation assay (CellTiter-Glo), EZH2 WT B cell ALL cell lines; assay type: cell-based; conditions: Homo sapiens, 144 h, 6 days, range over cell lines, read-out: growth IC50 values
Description: as §1, §3

[5] = test system: SUP-B8 cells; assay: Gene expression profiling (Affymetrix U133 Plus 2.0), SUP-B8; assay type: cell-based, human; conditions: SUP-B8, 500 nM GSK126, 72 hours
Description: as §4, §5

[6] = test system: NALM-6 cells; assay: Caspase 3/7 assay (Caspase-Glo 3/7), NALM-6; assay type: cell-based, human; conditions: NALM-6 (EZH2 WT), out to 6 days
Text: as §2
(§6) For detection of caspase-3/7 activity, Caspase-Glo 3/7 (Promega) was utilized according to the manufacturer's directions. Values were normalized to CellTiter Glo (Promega) levels at each time point and expressed as a percentage of vehicle treated control.

[7] = test system: H3K27me3 in SUP-B8 cells; assay: Western blot analysis of H3K27 methylation after GSK126 treatment; assay type: cell-based, human; conditions: SUP-B8 compared with the most sensitive EZH2 WT cell line NALM-6, 72 hours
Description: as §1
Cell lysate preparation and western blotting were performed as previously described (McCabe et al., 2012a). Antibodies utilized included: EZH2 (BD Transduction Labs), histone H3 (Abcam), H3K27me1 (ActiveMotif), H3K27me2 (Cell Signaling Technology), H3K27me3 (Cell Signaling Technology), EED (Santa Cruz), SUZ12 (Cell Signaling Technology), or Actin (Sigma). Histone methylation antibody specificity was previously confirmed using full-length recombinant methylated histones harboring mono-, di-, or tri-methylation at H3K4, H3K9, H3K27, H3K36, and H3K79 (McCabe et al., 2012a).

[8] = test system: NALM-6 cells; assay: Growth inhibition time course (CellTiter-Glo), NALM-6; assay type: cell-based, human; conditions: NALM-6 (EZH2 WT), out to 6 days
Description: as §2, §3

[9] = test system: SUP-B8 cells; assay: Caspase 3/7 assay (Caspase-Glo 3/7), SUP-B8; assay type: cell-based, human; conditions: SUP-B8, beginning on day 5
Text: as §2, §6

## CC[C@H](C)n1cc(C)c2c(C(=O)NCc3c(C)cc(C)[nH]c3=O)cc(-c3ccc(N4CCNCC4)nc3)cc21 [GSK126]
[1]; Homo sapiens, 144 h, SUP-B8 (heterozygous A687V EZH2), 6 days, CellTiter-Glo, read-out: dose required to inhibit 50% of cell proliferation (growth IC50)
  pIC50: 6.36
[1]; SUP-B8, after 4 days of treatment, maximal on day 6
  growth inhibition over 6 day time course: dose-dependent growth inhibition
[1]; SUP-B8, day 6
  doses at which cell number losses were evident: above 100 nM
[2]
  down-regulated probes: 10
  up-regulated probes: 35
[3]
  inhibition of proliferation: effectively inhibit the proliferation
[4]
  pIC50: 5.11 to 5.60
[5]
  up-regulated probes: 643
[6]
  activation of caspases 3 or 7: no activation of caspases 3 or 7
[7]
  demethylation of H3K27me3: comparable, or slightly reduced, demethylation of H3K27me3
[8]
  growth inhibition over 6 day time course: little growth inhibition
[9]
  caspase 3/7 activity: increased in a dose-dependent fashion

— patent publication US20160361309A1, “METHODS OF TREATING CANCER PATIENTS RESPONDING TO EZH2 INHIBITOR GSK126” (GLAXOSMITHKLINE INTELLECTUAL PROPERTY (NO.2) LIMITED, priority 2014, published 2016)
